Data on eleven compounds can be found in US20020032228A1 (priority 2000, published 2002).

Data set [1] relates to mouse intestinal loops challenged with cholera toxin. In kind it is in vivo.
Another data set relates to Xenopus laevis epidermis. In kind it is cell-based.
The subject of another data set is CHO cells. In kind it is cell-based, Chinese hamster.
Another data set concerns the target Adenylate Cyclase (Bordetella pertussis, UniProt P0DKX7). The experiment in a line: biochemical. In kind it is biochemical.
In data set [2] the test system is mouse intestinal loops challenged with cholera toxin. The class given is in vivo. Conditions: 6 hour.
The conditions of data set [3]: 168 h, pH 5.5.
The next data set in a line: physchem. Conditions: pH 5.5.
[4] abbreviates: enzyme 4.6 nmoles, imidazole 2.7 mmoles, PGE2-Histidine adduct 52 μmoles, celecoxib 0.52 mmoles.

Entries after “also recorded” stand apart in the source; their conditions may differ. Where two headings read alike, the source gives them in different places.

Adenylate Cyclase, sequence (P0DKX7 whole entry, looked up): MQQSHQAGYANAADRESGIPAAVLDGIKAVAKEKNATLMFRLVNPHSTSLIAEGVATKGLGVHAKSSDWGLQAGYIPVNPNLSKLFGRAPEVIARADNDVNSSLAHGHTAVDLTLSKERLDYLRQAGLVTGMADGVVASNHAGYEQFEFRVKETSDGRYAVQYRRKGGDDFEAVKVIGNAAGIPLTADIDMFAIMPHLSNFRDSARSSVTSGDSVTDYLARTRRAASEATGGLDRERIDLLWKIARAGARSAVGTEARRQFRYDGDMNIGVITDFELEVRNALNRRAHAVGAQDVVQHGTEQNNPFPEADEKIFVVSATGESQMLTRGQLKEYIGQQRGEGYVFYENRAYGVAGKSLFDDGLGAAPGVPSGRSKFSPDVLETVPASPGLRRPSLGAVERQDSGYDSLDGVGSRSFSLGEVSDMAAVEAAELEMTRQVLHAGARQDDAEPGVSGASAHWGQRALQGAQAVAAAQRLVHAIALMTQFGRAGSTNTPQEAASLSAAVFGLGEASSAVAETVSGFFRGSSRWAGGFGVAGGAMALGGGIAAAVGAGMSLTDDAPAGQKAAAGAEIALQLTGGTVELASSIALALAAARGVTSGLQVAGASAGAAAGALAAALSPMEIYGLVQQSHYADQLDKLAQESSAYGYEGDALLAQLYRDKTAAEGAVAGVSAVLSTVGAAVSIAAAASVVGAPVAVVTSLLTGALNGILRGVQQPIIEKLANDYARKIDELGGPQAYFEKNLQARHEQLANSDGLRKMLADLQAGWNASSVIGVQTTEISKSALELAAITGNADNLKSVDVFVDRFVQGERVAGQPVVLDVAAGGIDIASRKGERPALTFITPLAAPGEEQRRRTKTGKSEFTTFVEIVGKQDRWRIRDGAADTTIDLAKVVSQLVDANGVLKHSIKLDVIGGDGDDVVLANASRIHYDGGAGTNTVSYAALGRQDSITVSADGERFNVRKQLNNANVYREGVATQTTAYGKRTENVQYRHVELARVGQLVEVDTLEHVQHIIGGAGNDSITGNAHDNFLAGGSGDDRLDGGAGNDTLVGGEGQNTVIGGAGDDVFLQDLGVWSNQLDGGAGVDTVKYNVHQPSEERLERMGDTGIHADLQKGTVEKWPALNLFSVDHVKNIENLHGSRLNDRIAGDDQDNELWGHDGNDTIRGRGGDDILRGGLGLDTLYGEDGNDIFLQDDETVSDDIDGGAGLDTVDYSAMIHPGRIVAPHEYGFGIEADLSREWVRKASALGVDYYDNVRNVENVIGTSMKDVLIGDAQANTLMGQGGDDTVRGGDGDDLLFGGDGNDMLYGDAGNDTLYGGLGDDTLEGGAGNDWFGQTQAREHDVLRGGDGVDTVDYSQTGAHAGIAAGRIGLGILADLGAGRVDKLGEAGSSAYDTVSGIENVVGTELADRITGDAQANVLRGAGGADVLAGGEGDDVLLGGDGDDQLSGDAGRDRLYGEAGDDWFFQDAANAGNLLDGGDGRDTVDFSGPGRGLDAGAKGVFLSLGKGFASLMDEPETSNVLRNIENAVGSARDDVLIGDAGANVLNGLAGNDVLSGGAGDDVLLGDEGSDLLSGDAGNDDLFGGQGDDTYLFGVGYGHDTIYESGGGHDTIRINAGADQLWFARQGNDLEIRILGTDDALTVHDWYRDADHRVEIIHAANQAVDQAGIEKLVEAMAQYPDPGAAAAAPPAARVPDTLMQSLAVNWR

Turning to `CCCCC[C@H](O)/C=C/C1=C(C/C=C\CCCC(=O)O)C(=O)CC1` [PGB2, reference compound], the “CT-induced fluid accumulation in murine intestinal loops” value in data set [1] (mouse, in vivo) is reported as “reduce CT-induced fluid accumulation in murine intestinal loops with lower potency”.
On to `COc1ccc(-n2nc(C(F)(F)F)cc2-c2ccc(Cl)cc2)cc1` [SC560, reference compound], for which, in data set [1] (mouse, in vivo, sc), the “cholera toxin-induced fluid secretion” value was “inhibits cholera toxin-induced fluid secretion”.
Consider `CCCCC[C@H](O)/C=C/[C@H]1C=CC(=O)[C@@H]1C/C=C\CCCC(=O)O` [PGA2, reference compound], for which the “CT-induced fluid accumulation in murine intestinal loops” value in data set [1] (mouse, in vivo) is recorded as “reduce CT-induced fluid accumulation in murine intestinal loops with lower potency”.
For `N[C@@H](Cc1c[nH]cn1)C(=O)O` [L-histidine], in data set [1] (6 hours), the “fluid accumulation in mouse intestinal loops challenged with cholera toxin” value was “as the dose of L-histidine was increased, the amount of fluid accumulation decreased; also recorded: accumulated significantly less fluid” and the “reduction of fluid accumulation, statistical significance” value is listed as “statistical significance (P<0.05)”. Moreover, in the data set on Xenopus laevis epidermis, the “Difference in ISC between PGE2 and PGE2+L-histidine” value is recorded as 78±21%; the “ISC, % of control” value was 30±9 % of control; the “basal and PGE2-induced sodium transport” value was “reduced both basal and PGE2-induced sodium transport”. Further, the “PGE2- and CT-stimulated cAMP formation in CHO cells” value in the data set on CHO cells is “reduced the capacity of both PGE2 and CT to stimulate cAMP formation”.
The IC50 is the midpoint of a concentration-inhibition curve. Regarding `Cc1ccc(-c2cc(C(F)(F)F)nn2-c2ccc(S(N)(=O)=O)cc2)cc1` [celecoxib, reference compound], the “CT-induced fluid accumulation in murine intestinal loops” value in data set [1] (6 hours) is given as “significantly reduced”. On Adenylate Cyclase, the IC50 was determined as 20 µM. Also, the “inhibition of adenylate cyclase enzyme activity (FIG. 12)” value (“inhibition … (FIG. 12)” for short) against Adenylate Cyclase (setting [4]) is reported as “inhibit adenylate cyclase enzyme activity”.
For `CC(=O)N[C@@H](CS)C(=O)O` [NAC, N-acetyl-L-cysteine, reference compound], the intestinal fluid accumulation result in data set [1] (mouse, in vivo) is on record as “blocked all intestinal fluid accumulation”. Besides, the “protection against CT-induced fluid secretion in small intestinal loops” value in data set [1] (mouse, in vivo, ip, pH 7) is on record as “no protective effect”.
`CS(=O)(=O)c1ccc(C2=C(c3ccccc3)C(=O)OC2)cc1` [rofecoxib, reference compound]: the cholera toxin-induced secretion result in data set [1] (mouse, in vivo) was “does not inhibit cholera toxin-induced secretion”. For the same compound, the “inhibition … (FIG. 12)” value against Adenylate Cyclase (setting [4]) is listed as “absence of adenylate cyclase inhibition”.
Take `CCCCCC(O)/C=C/[C@H]1C(O)CC(=O)[C@H]1C/C=C\CCCC(=O)O` (some centres unmarked) [PGE2, reference compound]: the “increase of steady-state Na+-dependent short circuit current (ISC)” value in the data set on Xenopus laevis epidermis amounted to 14%. Also, the “maximum PGE2-induced change in ISC” value in the data set with Xenopus laevis epidermis (n=5) worked out at 18±3%.
The half-life is the time in which the quantity being followed falls by half. Low readings indicate fast loss, high ones slow loss. Regarding `CCCCCC(O)/C=C/[C@H]1C(n2ccnc2)CC(=O)[C@H]1C/C=C\CCCC(=O)O` (some centres unmarked) [PGE2-imidazole, 11-deoxy-11-imidazolyl-PGE2], the CT-induced fluid accumulation result in data set [1] (6 hour) is given as “significantly reduced”. Besides, in data set [1] (mouse, in vivo), the “fluid loss following CT challenge” value is given as “completely blocked” and the “inhibition of the CT fluid response” value is “virtually complete inhibition”. Moreover, the “inhibition of CT-induced cAMP formation” value in the data set on CHO cells is listed as “significant inhibition; also recorded: reduces cAMP levels”. For the same compound, the “reduction of cAMP levels” value in the data set on CHO cells (0.5 μg/ml) is “approximately 50%”. Moreover, the “cAMP levels in the intestinal loop fluids” value in data set [2] is “markedly reduced”. The adduct remaining in data set [3] was determined as 10%. Moreover, the half-life in “physchem” was about 60 h.
For “prostaglandin E2-histidine [PGE2-histidine]”, the “inhibition of the CT fluid response” value in data set [1] (mouse, in vivo) is reported as “virtually complete inhibition”. Further, the “inhibition … (FIG. 12)” value on Adenylate Cyclase is “inhibit adenylate cyclase enzyme activity”. The IC50 on Adenylate Cyclase (read-out: IC50 dose inhibiting 50% of the enzyme activity) was 21.5 µM.
On to `c1c[nH]cn1` [imidazole], for which, at Adenylate Cyclase, the IC50 came out at 1570 µM. Also, the “inhibition … (FIG. 12)” value at Adenylate Cyclase (setting [4]) is “inhibit adenylate cyclase enzyme activity”. Further, the “Ratio Enzyme:Drug, molar concentration required to inhibit Adenylate Cyclase” value at Adenylate Cyclase (enzyme 0.46 nm) is reported as 0.46 nm:1.57 mm.
